The nature of one series: physchem. The conditions noted are these: pH 7.2, aqueous buffer.
Series [1] is described as follows: Solubility in water around the neutral pH range. The settings on record: for solubility in water: pH 7.2 (around the neutral range); for solubility in water relative to BSPM: pH 7.2, multiple of the solubility of BSPM.
For series [2], the system named is H202-POD (peroxidase) system. Put plainly: Oxidation coloring in the H2O2-peroxidase system. The settings on record: statement in words. The text has this: The triphenyl methane derivatives according to the present invention in which two groups ―O(CH2)nSO3M (M and n are the same meanings as given above), are present, are unexpectedly different from the triphenyl methane derivative in which two sulfonic acid groups are directly bonded to the benzene nucleus, since they are excellent in oxidation coloring in the H202-POD system, and can be satisfactorily used for the purpose aimed at by the present invention.

The conditions of series [3]: known triphenyl methane type leuco coloring matters, statement in words; cited from earlier work.

The values that follow come from patent EP0174371B1, “TRIPHENYLMETHANE DERIVATIVES AND METHOD FOR DETERMINING OXIDATIVE SUBSTANCES USING THEM AS COLOR-FORMING COMPONENT” (WAKO PURE CHEMICAL INDUSTRIES, LTD., priority 1984, dated 1985).

SMILES strings stand for the structures. Converted amounts (≈) assume the structure as drawn.

In the series “physchem”, `CCN(CC)c1ccc(C(c2ccc(N(CC)CC)cc2)c2ccccc2S(=O)(=O)O)cc1` [BSPM, bis(4-diethylaminophenyl)-2-sulfophenyl methane] had a solubility of 500 µM (≈ 233 µg/mL). As for `CCN(CC)c1ccc(C(c2ccc(N(CC)CC)cc2)c2ccc(OCCCS(=O)(=O)O)c(OCCCS(=O)(=O)O)c2)cc1` [BSdiproPM, bis(4-N,N-diethylaminophenyl)-3,4-disodium sulfopropoxyphenyl methane], in series [1], the solubility in water was no less than 15000 µM and the “solubility in water relative to BSPM” value was “not less than 30 times”. The matching figures for `CCN(CC)c1ccc(C(c2ccc(OCCCS(=O)(=O)O)cc2)c2ccc(N(CC)CC)cc2)cc1` [BSproPM, bis(4-N,N-diethylaminophenyl)-4-sodium sulfopropoxyphenyl methane]: 5000 µM and 10 times. As to `CCN(CC)c1ccc(C(c2ccc(N(CC)CC)cc2)c2ccc(S(=O)(=O)O)cc2S(=O)(=O)O)cc1` [bis(4-diethylaminopheny)-2,4-disulfophenyl methane], the “oxidation coloring in the H202-POD system” value in series [2] is “no coloring takes place”.

Regarding `CN(C)c1ccc(C(c2ccccc2)c2ccc(N(C)C)cc2)cc1` [leuco malachite green], the “solubility in water in the neutral pH-range” value in series [3] was “difficult to dissolve into water in the neutral pH-range”. With `CN(C)c1ccc(C(c2ccc(N(C)C)cc2)c2ccc(N(C)C)cc2)cc1` [leucocrystal violet], the “solubility in water in the neutral pH-range” value in series [3] is reported as “difficult to dissolve into water in the neutral pH-range”.

What is called solubility is the concentration that dissolves in the medium under given conditions. A high value points to a readily soluble substance.
